# According to ChEMBL document CHEMBL1122817, “Synthesis and biological activity of substituted [[3(S)-(acylamino)-2-oxo-1-azetidinyl]oxy]acetic acids. A new class of heteroatom-activated beta-lactam antibiotics” (1985):
# How the values were obtained:
# Streptococcus pneumoniae = assay: Minimum inhibitory concentration against Streptococcus pneumoniae Park I; format: functional
# Escherichia coli [1] = assay: Inhibitory activity against Escherichia coli X161M at 1 mg/mL concentration using Agar disk plate assay; format: functional
# [2] = tested on: Geobacillus stearothermophilus; assay: Inhibitory activity against Bacillus Stearothermophilus C451 at 1 mg/mL concentration using Agar disk plate assay; format: functional
# Streptococcus pyogenes = assay: Minimum inhibitory concentration against Streptococcus pyogenes C203; format: functional
# Escherichia coli [3] = assay: Inhibitory activity against Escherichia coli X580 at 10 mg/mL concentration using Agar disk plate assay; format: functional
# Ralstonia solanacearum [4] = assay: Inhibitory activity against Pseudomonas solanacearum X185 at 1 mg/mL concentration using Agar disk plate assay; format: functional
# Klebsiella pneumoniae [5] = assay: Minimum inhibitory concentration against Klebsiella pneumoniae X26; format: functional
# Pseudomonas aeruginosa [6] = assay: Inhibitory activity against Pseudomonas aeruginosa X48 at 10 mg/mL concentration using Agar disk plate assay; format: functional
# Proteus inconstans = assay: Minimum inhibitory concentration against Proteus inconstans PR33; format: functional; conditions: Providencia alcalifaciens
# Klebsiella pneumoniae [7] = assay: Minimum inhibitory concentration against Klebsiella pneumoniae KAE; format: functional
# Citrobacter freundii = assay: Minimum inhibitory concentration against Citrobacter freundii CF17; format: functional
# Haemophilus influenzae [8] = assay: Minimum inhibitory concentration against Haemophilus influenza C.L; format: functional
# [9] = tested on: Salmonella enterica subsp. enterica serovar Gallinarum; assay: Inhibitory activity against Salmonella gallinarum X142 at 1 mg/mL concentration using Agar disk plate assay; format: functional
# [10] = tested on: Acinetobacter calcoaceticus; assay: Minimum inhibitory concentration against Acinetobacter calcoaceticus AC12; format: functional
# Bacillus subtilis [11] = assay: Inhibitory activity against Bacillus Subtilis X12M at 10 mg/mL concentration using Agar disk plate assay; format: functional
# Klebsiella aerogenes [12] = assay: Minimum inhibitory concentration against Enterobacter aerogenes EB 17; format: functional
# Serratia marcescens [13] = assay: Inhibitory activity against Serratia marcescens X99 at 1 mg/mL concentration using Agar disk plate assay; format: functional
# Ralstonia solanacearum [14] = assay: Inhibitory activity against Pseudomonas solanacearum X185 at 10 mg/mL concentration using Agar disk plate assay; format: functional
# Escherichia coli [15] = assay: Minimum inhibitory concentration against Escherichia coli TEM; format: functional
# Serratia marcescens [16] = assay: Minimum inhibitory concentration against Serratia marcescens X99; format: functional
# Micrococcus luteus [17] = assay: Inhibitory activity against Sarcina lutea X186 at 10 mg/mL concentration using Agar disk plate assay; format: functional
# Enterobacter cloacae [18] = assay: Minimum inhibitory concentration against Enterobacter cloacae EB5; format: functional
# Salmonella typhi [19] = assay: Minimum inhibitory concentration against Salmonella typhi X514; format: functional, Salmonella enterica subsp. enterica serovar Typhi; conditions: Salmonella enterica
# Enterobacter cloacae [20] = assay: Minimum inhibitory concentration against Enterobacter cloacae 265A; format: functional
# Klebsiella aerogenes [21] = assay: Minimum inhibitory concentration against Enterobacter aerogenes C32; format: functional
# Salmonella typhi [22] = assay: Minimum inhibitory concentration against Salmonella typhi 1335; format: functional, Salmonella enterica subsp. enterica serovar Typhi; conditions: Salmonella enterica
# Klebsiella pneumoniae [23] = assay: Minimum inhibitory concentration against Klebsiella pneumoniae X68; format: functional
# Serratia marcescens [24] = assay: Inhibitory activity against Serratia marcescens X99 at 10 mg/mL concentration using Agar disk plate assay; format: functional
# Bacillus subtilis [25] = assay: Inhibitory activity against Bacillus Subtilis X12M at 1 mg/mL concentration using Agar disk plate assay; format: functional
# Pseudomonas aeruginosa [26] = assay: Minimum inhibitory concentration against Pseudomonas aeruginosa (4 strains); format: functional
# Escherichia coli [27] = assay: Minimum inhibitory concentration against Escherichia coli N10; format: functional
# Bacillus subtilis [28] = assay: Inhibitory activity against Bacillus Subtilis X12 at 10 mg/mL concentration using Agar disk plate assay; format: functional
# Staphylococcus aureus [29] = assay: Minimum inhibitory concentration against Staphylococcus aureus (4 strains); format: functional
# Micrococcus luteus [30] = assay: Inhibitory activity against Sarcina lutea X186 at 1 mg/mL concentration using Agar disk plate assay; format: functional
# Proteus vulgaris [31] = assay: Inhibitory activity against Proteus vulgaris X45 at 10 mg/mL concentration using Agar disk plate assay; format: functional
# Haemophilus influenzae [32] = assay: Minimum inhibitory concentration against Haemophilus influenza 76; format: functional
# [33] = tested on: Salmonella enterica subsp. enterica serovar Gallinarum; assay: Inhibitory activity against Salmonella gallinarum X142 at 10 mg/mL concentration using Agar disk plate assay; format: functional
# Bacillus subtilis [34] = assay: Inhibitory activity against Bacillus Subtilis X12 at 1 mg/mL concentration using Agar disk plate assay; format: functional
# [35] = tested on: Geobacillus stearothermophilus; assay: Inhibitory activity against Bacillus Stearothermophilus C451 at 10 mg/mL concentration using Agar disk plate assay; format: functional
# Escherichia coli [36] = assay: Inhibitory activity against Escherichia coli X161 at 10 mg/mL concentration using Agar disk plate assay; format: functional
# Escherichia coli [37] = assay: Minimum inhibitory concentration against Escherichia coli EC14; format: functional
# Escherichia coli [38] = assay: Inhibitory activity against Escherichia coli X161M at 10 mg/mL concentration using Agar disk plate assay; format: functional
# Providencia rettgeri = assay: Minimum inhibitory concentration against Proteus rettgeri C24; format: functional
# Serratia marcescens [39] = assay: Minimum inhibitory concentration against Serratia marcescens SE3; format: functional
# Streptococcus = assay: Minimum inhibitory concentration against Streptococcus sp. Group D (2 strains); format: functional
# Escherichia coli [40] = assay: Inhibitory activity against Escherichia coli X580 at 1 mg/mL concentration using Agar disk plate assay; format: functional
# Escherichia coli [41] = assay: Inhibitory activity against Escherichia coli X161 at 1 mg/mL concentration using Agar disk plate assay; format: functional
# Proteus vulgaris [42] = assay: Inhibitory activity against Proteus vulgaris X45 at 1 mg/mL concentration using Agar disk plate assay; format: functional
# [43] = tested on: Staphylococcus epidermidis; assay: Minimum inhibitory concentration against Staphylococcus epidermidis (2 strains); format: functional
# Staphylococcus aureus [44] = assay: Inhibitory activity against Staphylococcus aureus X1 at 10 mg/mL concentration using Agar disk plate assay; format: functional
# Morganella morganii = assay: Minimum inhibitory concentration against Proteus morganii PR15; format: functional
structure (smiles),measurement,setting,value
CO/N=C(/C(=O)N[C@@H]1C(=O)N(S(=O)(=O)[O-])[C@H]1C)c1csc(N)n1.[K+],MIC,Streptococcus pneumoniae,4 µg/mL
same,Zone of inhibition,Escherichia coli [1],40 mm
same,Zone of inhibition,[2],25 mm
same,MIC,Streptococcus pyogenes,4 µg/mL
same,Zone of inhibition,Escherichia coli [3],66 mm
same,Zone of inhibition,Ralstonia solanacearum [4],29 mm
same,MIC,Klebsiella pneumoniae [5],0.06 µg/mL
same,Zone of inhibition,Pseudomonas aeruginosa [6],25 mm
same,MIC,Proteus inconstans,0.03 µg/mL
same,MIC,Klebsiella pneumoniae [7],> 64 µg/mL
same,MIC,Citrobacter freundii,0.25 µg/mL
same,MIC,Haemophilus influenzae [8],0.5 µg/mL
same,Zone of inhibition,[9],48 mm
same,MIC,[10],4 µg/mL
same,Zone of inhibition,Bacillus subtilis [11],30 mm
same,MIC,Klebsiella aerogenes [12],0.125 µg/mL
same,Zone of inhibition,Serratia marcescens [13],33 mm
same,Zone of inhibition,Ralstonia solanacearum [14],40 mm
same,MIC,Escherichia coli [15],0.125 µg/mL
same,MIC,Serratia marcescens [16],0.25 µg/mL
same,Zone of inhibition,Micrococcus luteus [17],27 mm
same,MIC,Enterobacter cloacae [18],0.125 µg/mL
same,MIC,Salmonella typhi [19],0.06 µg/mL
same,MIC,Enterobacter cloacae [20],> 64 µg/mL
same,MIC,Klebsiella aerogenes [21],0.125 µg/mL
same,MIC,Salmonella typhi [22],0.125 µg/mL
same,MIC,Klebsiella pneumoniae [23],0.125 µg/mL
same,Zone of inhibition,Serratia marcescens [24],40 mm
same,Zone of inhibition,Bacillus subtilis [25],16 mm
same,MIC,Pseudomonas aeruginosa [26],> 64 µg/mL
same,MIC,Escherichia coli [27],0.125 µg/mL
same,Zone of inhibition,Bacillus subtilis [28],23 mm
same,MIC,Staphylococcus aureus [29],> 64 µg/mL
same,Zone of inhibition,Micrococcus luteus [30],25 mm
same,Zone of inhibition,Proteus vulgaris [31],46 mm
same,MIC,Haemophilus influenzae [32],0.25 µg/mL
same,Zone of inhibition,[33],36 mm
same,Zone of inhibition,Bacillus subtilis [34],15 mm
same,Zone of inhibition,[35],30 mm
same,Zone of inhibition,Escherichia coli [36],40 mm
same,MIC,Escherichia coli [37],0.06 µg/mL
same,Zone of inhibition,Escherichia coli [38],54 mm
same,MIC,Providencia rettgeri,0.03 µg/mL
same,MIC,Serratia marcescens [39],0.25 µg/mL
same,MIC,Streptococcus,> 64 µg/mL
same,Zone of inhibition,Escherichia coli [40],54 mm
same,Zone of inhibition,Escherichia coli [41],40 mm
same,Zone of inhibition,Proteus vulgaris [42],40 mm
same,MIC,[43],> 64 µg/mL
same,Zone of inhibition,Staphylococcus aureus [44],22 mm
same,MIC,Morganella morganii,0.25 µg/mL
CO/N=C(/C(=O)N[C@H]1CN(OCC(=O)[O-])C1=O)c1csc(N)n1.[K+],MIC,Streptococcus pneumoniae,32 µg/mL
same,MIC,Streptococcus pyogenes,16 µg/mL
same,Zone of inhibition,Escherichia coli [3],37 mm
same,MIC,Klebsiella pneumoniae [5],8 µg/mL
same,MIC,Proteus inconstans,2 µg/mL
same,MIC,Klebsiella pneumoniae [7],> 64 µg/mL
same,MIC,Citrobacter freundii,16 µg/mL
same,MIC,Haemophilus influenzae [8],16 µg/mL
same,MIC,[10],> 64 µg/mL
same,Zone of inhibition,Bacillus subtilis [11],13 mm
same,MIC,Klebsiella aerogenes [12],8 µg/mL
same,Zone of inhibition,Ralstonia solanacearum [14],16 mm
same,MIC,Escherichia coli [15],32 µg/mL
same,MIC,Serratia marcescens [16],16 µg/mL
same,Zone of inhibition,Micrococcus luteus [17],21 mm
same,MIC,Enterobacter cloacae [18],16 µg/mL
same,MIC,Salmonella typhi [19],4 µg/mL
same,MIC,Enterobacter cloacae [20],> 64 µg/mL
same,MIC,Klebsiella aerogenes [21],8 µg/mL
same,MIC,Salmonella typhi [22],8 µg/mL
same,MIC,Klebsiella pneumoniae [23],8 µg/mL
same,Zone of inhibition,Serratia marcescens [24],16 mm
same,MIC,Pseudomonas aeruginosa [26],> 64 µg/mL
same,MIC,Escherichia coli [27],8 µg/mL
same,MIC,Staphylococcus aureus [29],> 64 µg/mL
same,Zone of inhibition,Proteus vulgaris [31],21 mm
same,MIC,Haemophilus influenzae [32],16 µg/mL
same,Zone of inhibition,[33],22 mm
same,Zone of inhibition,[35],24 mm
same,Zone of inhibition,Escherichia coli [36],20 mm
same,MIC,Escherichia coli [37],4 µg/mL
same,Zone of inhibition,Escherichia coli [38],19 mm
same,MIC,Providencia rettgeri,2 µg/mL
same,MIC,Serratia marcescens [39],16 µg/mL
same,MIC,Streptococcus,> 64 µg/mL
same,MIC,[43],> 64 µg/mL
same,MIC,Morganella morganii,32 µg/mL
CO/N=C(\C(=O)N[C@@H]1C(=O)N(O[C@H](OC(C)=O)C(=O)[O-])[C@H]1C)c1csc(N)n1.[K+],Zone of inhibition,Escherichia coli [1],30 mm
same,Zone of inhibition,[9],25 mm
same,Zone of inhibition,Serratia marcescens [13],24 mm
same,Zone of inhibition,Escherichia coli [40],46 mm
same,Zone of inhibition,Escherichia coli [41],17 mm
same,Zone of inhibition,Proteus vulgaris [42],28 mm
C[C@H]1[C@H](NC(=O)Cc2ccccc2)C(=O)N1OCC(=O)O,Zone of inhibition,Escherichia coli [3],26 mm
same,Zone of inhibition,Bacillus subtilis [11],18 mm
same,Zone of inhibition,Micrococcus luteus [17],23 mm
same,Zone of inhibition,Bacillus subtilis [28],11 mm
same,Zone of inhibition,Proteus vulgaris [31],10 mm
same,Zone of inhibition,Staphylococcus aureus [44],13 mm
